Reference: patent US20080262088A1, “METHODS, COMPOUNDS, AND COMPOSITIONS FOR TREATING METABOLIC DISORDERS AND DIABETES” (priority 2006, published 2008)

What was measured:
[1] = system: patients with AA amyloidosis; conditions: previously tested clinically in patients with AA amyloidosis; cited from earlier work
[2] = system: Peroxisome proliferator-activated receptor gamma (PPARG); assay: Kidney gene expression, Gene Chip Rat Exon 1.0 ST Array; type: in vivo; conditions: pooled whole kidney RNA, treated vs controls
Experimental: The effect of the PDS treatment on kidney gene expression was also measured. Briefly, whole kidney RNA was isolated and pooled from 2-4 individual rats from each group (controls and treated group). The polled RNA was then processed using a Gene Chip Rat Exon 1.0 ST Array™ (Affimetrix) according to the manufacturer's standard procedure and analyzed for differential expression between the two groups on gene and exon levels. […] PPARG is a well known transcriptional regulator that regulates lipid, glucose and amino acid metabolism, and this receptor is the main target of the thiazolidinediones used in diabetes mellitus and other diseases that feature insulin resistance.

[3] = system: Zucker Diabetic Fatty rat (ZDF); assay: Kidney histology (glomerular global score) in ZDF rats; type: in vivo; conditions: after 12 weeks
Description: FIG. 7 is a bar graph showing glomerular global score for control and treated satient Zucker diabetic obese male rats after 12 weeks, according to Example 11(a). Categories: (−) no global score; (±) mild global score; (+) mild to moderate global score; (++) moderate global score.
(§1) Thirty-two, 6 week-old male ZDF rats (Charles River, St. Constant, Canada) were randomized in 2 groups, Treated (PDS; in 1% sucrose drinking solution) and Control (1% sucrose drinking solution), and studied for a period of 12 weeks. […] All rats were fed a high fat/high sucrose diabetogenic diet (Harlan™ TD95217). Body weight, food and drinking solution consumption were measured on a daily basis. Twelve rats from each group were individually housed in metabolic cages for a period of 24 hours once a week. […] At the end of each metabolic cage session, urine output was measured, and blood and urine samples were collected in order to quantify serum and/or urine levels of PDS, creatinine, protein, uric acid, triglycerides, glucose, and electrolytes. […]
Histology was performed on both controls and PDS-treated animals. […] The global score was calculated by summing up the number of observations for each histological parameter (mesangial matrix expansion, glomerular cell proliferation, basement membrane thickening, and glomerular enlargement). […]

[4] = system: Zucker Diabetic Fatty rat (ZDF); assay: Effect on pancreatic function in ZDF rats (satient insulin, glycemia, diuresis); type: in vivo
Experimental: (§2) Thirty-two, 6 week-old male ZDF rats (Charles River, St. Constant, Canada) were randomized in 2 groups, Treated (PDS; in 1% sucrose drinking solution) and Control (1% sucrose drinking solution), and studied for a period of 12 weeks. […] All rats were fed a high fat/high sucrose diabetogenic diet (Harlan™ TD95217). Body weight, food and drinking solution consumption were measured on a daily basis. Twelve rats from each group were individually housed in metabolic cages for a period of 24 hours once a week. During week 2, 3, 4 and 5, rats placed in metabolic cages received drinking solution but were placed in fasting condition, whereas during weeks 1, […], 6 to 12, rats were given ad libitum access to food and drinking solution. At the end of each metabolic cage session, urine output was measured, and blood and urine samples were collected in order to quantify serum and/or urine levels of PDS, creatinine, protein, uric acid, triglycerides, glucose, and electrolytes. These variables were used to calculate creatinine clearance (Ccr) and proteinuria, and to evaluate general metabolic and renal health status. At the end of the study, the animals were sacrificed and selected organs were kept for further analysis (e.g. weighing, histology).
As is known, diabetes may be due to a lack of insulin secretion (type I diabetes), or to a resistance of peripheral tissues to insulin action (more insulin is needed to decrease blood glucose to the same level as controls in the same amount of time; type II diabetes). The Zucker obese diabetic rat employed in this study is a model of insulin resistance. Hyperglycemia is almost always observed in this model, despite the initially very high circulating insulin levels that fall down with the progression of the disease due to pancreatic beta cell exhaustion. A beneficial treatment is expected to increase insulin secretion, decrease glucose levels by other means or increase glucose utilization by peripheral tissues.
Results for each time point are represented as median and mean ± SEM. Trend statistics are calculated by two-way ANOVA with or without repeated measures, with p<0.05 considered statistically significant.

SHR rats = assay: In vivo preventive study of pancreatic function in SHR rats (streptozotocine, OGTT); parameters: species or system rat; conditions: low dose streptozotocine after initiation of treatment, PDS vs vehicle
Experimental: SHR rats are non-diabetic rats but having insulin resistance. Rats are divided in two groups which are administered PDS or vehicle respectively. After initiation of treatment, all rats are administered streptozotocine at low dose with the aim to chemically destroy a portion of Langerhans islets. Both treated and control rats are challenged by an Oral Glucose Tolerance Test (OGTT) and glucose levels are measured.

[5] = system: Zucker Diabetic Fatty rat (ZDF); assay: In vivo preventive study of renal function and metabolic status in ZDF rats (serum/urine chemistry, body and organ weights)
Description: The compound 1,3 Propanedisulfonic Acid Disodium Salt (PDS) was selected for a preventive study of renal function in the Zucker rat (ZDF) model as well as its effect on metabolic status and diabetes.
A leading study model for DN is the inbred Zucker Diabetic Fatty rat (ZDF). Given a diabetogenic diet, the ZDF rat will closely mimic human adult onset diabetes (Type 2) and related complications including glomerulosclerosis and renal damage earlier than when fed a normal diet (i.e. 14-18 weeks of age). In addition, obesity, mild hypertension, hypertriglyceridemia, hypercholesterolemia, fasting hyperglycemia, impaired glucose tolerance and hyperinsulinemia, are all major phenotypes featured in the ZDF rat.
as §2
This pre-clinical investigation evaluates the role and efficacy of compound 1,3-Propanedisulfonic Acid Disodium Salt (PDS) (Eprodisate Disodium) as a preventive treatment for DN and related pathophysiology in the ZDF rat model. The primary measured outcome is the attenuation/reversal of creatinine clearance deterioration and of proteinuria. The secondary measured outcome is the impact on the metabolic status in this model.
Results for each time point are represented as median or mean ± SEM. Trend statistics are calculated by two-way ANOVA with or without repeated measures, with p<0.05 considered statistically significant.

[6] = system: Zucker Diabetic Fatty rat (ZDF); assay: Histology of the pancreas in ZDF rats (islets of Langerhans per field); type: in vivo; conditions: week 12, significant difference, FIG. 11
Description: FIG. 11 is a box graph showing distribution of number of islets of Langerhans per field counted during histology of the pancreas from control and treated Zucker diabetic obese male rats at week 12, according to Example 11(b). Box plot lower limit represents the 25th percentile, whereas higher limit represents 75th percentile. Whiskers above and below indicate 90th and 10th percentiles, and median and mean values are represented by solid and dashed lines respectively.
as §1

[7] = end of 12-week study, not shown

For `O=S(=O)(O)CCCS(=O)(=O)O` [1,3-propanedisulfonic acid], the safety in humans [1] is given as “can be safely used in humans”.

For `O=S(=O)([O-])CCCS(=O)(=O)[O-].[Na+].[Na+]` [PDS, 1,3 Propanedisulfonic Acid Disodium Salt], the “PPARG gene expression in kidney, increase in treatment group” value [2] was 1.85 fold, the “number of genes down regulated in the treatment group” value ([2]; not shown) was 43 genes and the “number of genes up regulated in the treatment group” value ([2]; not shown) was 75 genes. The “glomerular global score (histology)” value ([3]; p=0.001, FIG. 7, sum of mesangial matrix expansion, glomerular cell proliferation, basement membrane thickening, glomerular enlargement) was “lowest scores”, the “kidney pathology (histology), treated vs control” value ([3]; not shown separately) was “less pathology” and the “glycemia, serum glucose by hexokinase (HK) II method, PDS-treated vs control” value ([4]; by week 10, p<0.001, FIG. 9A) was “significantly lower”. The “glycemia, capillary blood glucose by glucose meter kit, PDS-treated vs control” value ([4]; by week 10, p=0.002, FIG. 9B) was “significantly lower”, the “satient serum insulin (RIA), PDS-treated vs control” value ([4]; end of the experiment (12 weeks), fed animals, FIG. 8) was “more than twice as high” and the “diuresis (urine production), PDS-treated vs control” value ([4]; from week 9, FIG. 10) was “lower”. The “glucose levels after Oral Glucose Tolerance Test (OGTT)” value (SHR rats) was “lower glucose levels than control”, the “creatinine clearance (body weight corrected), treated vs control” value ([5]; 12 weeks of treatment, FIG. 2B, slight tendency to be higher weeks 6-8) was “no significant difference” and the “clearance of uric acid, treated vs control” value ([5]; FIG. 4B, body weight corrected) was “better in treated animals”. The “proteinuria (urine protein content), treated vs control” value ([5]; after 8 weeks measurable effect, difference significant at weeks ten and twelve, FIG. 3) was “lesser proteinuria”, the “kidney size, treated vs controls” value ([5]; end of 12-week study) was “tended to be smaller” and the “heart weight/BW ratio, treated vs control” value [5, 7] was “no significant difference”. For the same compound, the “kidney weight/BW ratio, treated vs control” value [5, 7] was “no significant difference”, the “pancreas weight/BW ratio, treated vs control” value [5, 7] was “no significant difference” and the “serum triglycerides, PDS-treated vs controls” value ([5]; from onset of treatment throughout the study, p=0.002, FIG. 6A) was “consistently lower”. The “adverse effect at the beginning of the study (little decline in body weight)” value ([5]; higher concentration of PDS, week 1 (avg 4270 mg/kg/day)) was “diarrhea”, the “bodyweight of the treated vs. the control animals” value ([5]; male ZDF rats, PDS in 1% sucrose drinking solution, 12 weeks, data not shown) was “not significant difference” and the “serum creatinine, treated vs control” value ([5]; satient ZDF rats, 12 weeks, FIG. 2A, stable in both groups) was “tendency for lower values between treatment weeks 6 and 9”. The “hyperkalemia (serum potassium), control vs treated” value ([5]; starting at week 7, weeks 8 to 12, p<0.001, FIG. 5) was “significantly more severe in the control group”, the “serum cholesterol, PDS-treated vs control” value ([5]; treatment week 10, FIG. 6B) was “significantly lower” and the serum cholesterol ([5]; week 12, control 7.1 mmol/L, p<0.001) was 4.5 mmol/L. The “uric acid levels in serum, control group relative to PDS-treated animals” value ([5]; weeks 6 to 12, FIG. 4A) was “consistently higher than values from the PDS-treated animals” and the “number of islets of Langerhans per field, treated vs controls” value [6] was “higher number”.
